Data on 19 compounds can be found in patent publication US20170334899A1, “AMINO-SUBSTITUTED ISOTHIAZOLES” (Bayer Pharma Aktiengesellschaft, priority 2014, published 2017).

Where a name gives a salt, the structure may show the parent alone.

In this test the test system is human cervical tumor cell line HeLa (ATCC CCL-2). In words: SAC-Formation - Nocodazole-Induced Assay. It counts as cell-based. The conditions noted are these: 24 h, HeLa cells, nocodazole 0.1 μg/ml together with test compound, decrease of mitotic cells (phospho-histone H3 Ser10). The method in brief: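 HeLa cells, plated overnight, were treated 24 h at 37 °C with nocodazole (0.1 μg/ml final) plus test compound (0.005–20 μM, 0.5% DMSO) added at the same time. After fixation, anti-phospho-histone H3 Ser10 and Hoechst staining gave the mitotic cell fraction by imaging. Values came from four-parameter Hill fits.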

By IC50 is commonly meant the concentration that gives 50% inhibition. Regarding `Cc1nsc(Nc2cnc(C(F)(F)F)cn2)c1C(=O)Nc1ccc(O[C@@H]2CCN(CC(F)(F)F)C[C@@H]2F)nc1` [Example 138, N-(6-{[(3S,4R)-3-fluoro-1-(2,2,2-trifluoroethyl)piperidin-4-yl]oxy}pyridin-3-yl)-3-methyl-5-{[5-(trifluoromethyl)pyrazin-2-yl]amino}-1,2-thiazole-4-carboxamide], where the note is “Homo sapiens, HeLa”, the IC50 amounted to 110 nM.
For the compound `Cc1nsc(Nc2cnc3ccccc3n2)c1C(=O)Nc1ccc(S(C)(=O)=O)cc1` [Example 115, 3-Methyl-N-[4-(methylsulfonyl)phenyl]-5-(quinoxalin-2-ylamino)-1,2-thiazole-4-carboxamide], under “Homo sapiens, HeLa”, the IC50 amounted to 1200 nM.
For `Cc1nsc(Nc2cnc(C(F)(F)F)cn2)c1C(=O)Nc1ccc(O[C@H]2CCN(CC(F)F)C[C@H]2F)nc1` [Example 144, N-(6-{[(3R,4S)-1-(2,2-difluoroethyl)-3-fluoropiperidin-4-yl]oxy}pyridin-3-yl)-3-methyl-5-{[5-(trifluoromethyl)pyrazin-2-yl]amino}-1,2-thiazole-4-carboxamide], the IC50 (Homo sapiens, HeLa) was determined as 36 nM.
For the compound `Cc1nsc(Nc2ccc(C#N)cn2)c1C(=O)Nc1ccc(Oc2cccc(C(F)(F)F)c2)nc1` [Example 118, 5-[(5-Cyanopyridin-2-yl)amino]-3-methyl-N-{6-[3-(trifluoromethyl)phenoxy]pyridin-3-yl}-1,2-thiazole-4-carboxamide], the IC50 (Homo sapiens, HeLa) is 110 nM.
On the same count and under the same terms, next, `Cc1nsc(Nc2cnc(C(F)(F)F)cn2)c1C(=O)Nc1ccc(C(=O)N2CCN(CC(F)F)CC2)cc1` [Example 154, N-(4-{[4-(2,2-difluoroethyl)piperazin-1-yl]carbonyl}phenyl)-3-methyl-5-{[5-(trifluoromethyl)pyrazin-2-yl]amino}-1,2-thiazole-4-carboxamide]: 710 nM; `Cc1nsc(Nc2cnc3ccccc3n2)c1C(=O)Nc1cccc(C(=O)N2CCN(C)CC2)c1` [Example 102, 3-Methyl-N-{3-[(4-methylpiperazin-1-yl)carbonyl]phenyl}-5-(quinoxalin-2-ylamino)-1,2-thiazole-4-carboxamide]: 4900 nM; `Cc1nsc(Nc2cnc(C(F)(F)F)cn2)c1C(=O)Nc1ccc(OCC2CCN(CC(F)F)C2)nc1` (stereo not shown) [Example 122, N-(6-{[1-(2,2-difluoroethyl)pyrrolidin-3-yl]methoxy}pyridin-3-yl)-3-methyl-5-{[5-(trifluoromethyl)pyrazin-2-yl]amino}-1,2-thiazole-4-carboxamide]: 39 nM.
The same measure, in the same setting: next, `Cc1nsc(Nc2cnc(C(F)(F)F)cn2)c1C(=O)Nc1ccc(O[C@H]2CCN(CCC(F)(F)F)C[C@H]2F)nc1` [Example 146, N-(6-{[(3R,4S)-3-fluoro-1-(3,3,3-trifluoropropyl)piperidin-4-yl]oxy}pyridin-3-yl)-3-methyl-5-{[5-(trifluoromethyl)pyrazin-2-yl]amino}-1,2-thiazole-4-carboxamide]: 63 nM.
For the compound `Cc1nsc(Nc2cnc(C(F)(F)F)cn2)c1C(=O)Nc1ccc(OC2CCN(CCC(F)(F)F)CC2)nc1` [Example 426, 3-Methyl-5-{[5-(trifluoromethyl)pyrazin-2-yl]amino}-N-(6-{[1-(3,3,3-trifluoro-propyl)piperidin-4-yl]oxy}pyridin-3-yl)-1,2-thiazole-4-carboxamide, Salt with Hydrochloric Acid], the half-maximal inhibitory concentration (IC50) turned out to be 30 nM.
For the compound `COc1ccc(NC(=O)c2c(C)nsc2Nc2ccc(C#N)cn2)c(N2CCOCC2)n1` [Example 173, 5-[(5-cyanopyridin-2-yl)amino]-N-[6-methoxy-2-(morpholin-4-yl)pyridin-3-yl]-3-methyl-1,2-thiazole-4-carboxamide], for the setting “Homo sapiens, HeLa”, the IC50 was 1900 nM.
Same read-out and setting: next, `Cc1nsc(Nc2cnc(C(F)(F)F)cn2)c1C(=O)Nc1ccc(OC2CCN(CC(F)F)CC2)c(F)c1` [Example 164, N-(4-{[1-(2,2-difluoroethyl)piperidin-4-yl]oxy}-3-fluorophenyl)-3-methyl-5-{[5-(trifluoromethyl)pyrazin-2-yl]amino}-1,2-thiazole-4-carboxamide]: 84 nM; `Cc1nsc(Nc2ccc(C#N)cn2)c1C(=O)Nc1ccc(N[C@@H](C)C(=O)OC(C)(C)C)nc1` [Example 170, tert-butyl N-{5-[({5-[(5-cyanopyridin-2-yl)amino]-3-methyl-1,2-thiazol-4-yl}carbonyl)amino]pyridin-2-yl}alaninate]: 2300 nM.
Same read-out and setting: next, `Cc1nsc(Nc2cnc(C(F)(F)F)cn2)c1C(=O)Nc1ccc(OC[C@H]2CCN(CCC(F)(F)F)C2)nc1` [Example 134, 3-Methyl-5-{[5-(trifluoromethyl)pyrazin-2-yl]amino}-N-(6-{[(3S)-1-(3,3,3-trifluoropropyl)pyrrolidin-3-yl]methoxy}pyridin-3-yl)-1,2-thiazole-4-carboxamide]: 36 nM.
Same read-out and setting: next, `Cc1nsc(Nc2cnc(C(F)(F)F)cn2)c1C(=O)Nc1ccc(C(=O)OC(C)(C)C)cc1` [Example 96, tert-Butyl 4-{[(3-methyl-5-{[5-(trifluoromethyl)pyrazin-2-yl]amino}-1,2-thiazol-4-yl)carbonyl]amino}benzoate]: 1.8 nM.
As for `CCCN1CC[C@@H](Oc2ccc(NC(=O)c3c(C)nsc3Nc3cnc(C(F)(F)F)cn3)cn2)[C@@H](F)C1` [Example 140, N-(6-{[(3S,4R)-3-fluoro-1-propylpiperidin-4-yl]oxy}pyridin-3-yl)-3-methyl-5-{[5-(trifluoromethyl)pyrazin-2-yl]amino}-1,2-thiazole-4-carboxamide], the 50% inhibitory concentration (IC50) (Homo sapiens, HeLa) was 60 nM.
The same measure, in the same setting: next, `Cc1nsc(Nc2ccc(C#N)cn2)c1C(=O)Nc1cccc(S(C)(=O)=O)c1` [Example 150, 5-[(5-cyanopyridin-2-yl)amino]-3-methyl-N-[3-(methylsulfonyl)phenyl]-1,2-thiazole-4-carboxamide]: 160 nM; `Cc1nsc(Nc2cncc(C(F)(F)F)n2)c1C(=O)Nc1ccc(OC2CCN(C(=O)OC(C)(C)C)CC2)nc1` [Example 12, tert-Butyl 4-[(5-{[(3-methyl-5-{[6-(trifluoromethyl)pyrazin-2-yl]amino}-1,2-thiazol-4-yl)carbonyl]amino}pyridin-2-yl)oxy]piperidine-1-carboxylate]: 220 nM.
`Cc1nsc(Nc2cnc(C(F)(F)F)cn2)c1C(=O)Nc1ccc(OC2CCN(CC(F)F)CC2)nc1` [Example 8, N-(6-{[1-(2,2-Difluoroethyl)piperidin-4-yl]oxy}pyridin-3-yl)-3-methyl-5-{[5-(trifluoromethyl)pyrazin-2-yl]amino}-1,2-thiazole-4-carboxamide]: the IC50 (Homo sapiens, HeLa) came out at 1500 nM.
The same measure, in the same setting: next, `Cc1nsc(Nc2cnc(C(F)(F)F)cn2)c1C(=O)Nc1ccc(OCC2CCN(CC(F)(F)F)C2)nc1` (stereo not shown) [Example 123, 3-Methyl-N-(6-{[1-(2,2,2-trifluoroethyl)pyrrolidin-3-yl]methoxy}pyridin-3-yl)-5-{[5-(trifluoromethyl)pyrazin-2-yl]amino}-1,2-thiazole-4-carboxamide]: 12 nM.
